Test results taken from patent US11739100B2, “2,3-dihydro-1h-imidazo{1,2-a}pyrimidin-5-one and this 1,2,3,4-tetrahydropyrimido{1,2-a}pyrimidin-6-one derivatives comprising a substituted morpholine, preparation thereof and pharmaceutical use thereof” (SANOFI, priority 2012, dated 2023).

Biological target: T1, recombinant Vps34 (Homo sapiens, UniProt Q8NEB9)
T1 construct: purchased Invitrogen PV5126
Assay: Phosphorylation of phosphatidylinositol (PI) by Vps34 in vitro, ADP detected by TR-FRET (HTRF Transcreener ADP)
Type: biochemical
Details: 10 μM ATP, 55 μg/ml PI, approximately 3 nM Vps34, 1 hour at ambient temperature; absolute IC50, mean of two independent experiments; read-out: IC50 activity range

T1 sequence (Q8NEB9 whole entry): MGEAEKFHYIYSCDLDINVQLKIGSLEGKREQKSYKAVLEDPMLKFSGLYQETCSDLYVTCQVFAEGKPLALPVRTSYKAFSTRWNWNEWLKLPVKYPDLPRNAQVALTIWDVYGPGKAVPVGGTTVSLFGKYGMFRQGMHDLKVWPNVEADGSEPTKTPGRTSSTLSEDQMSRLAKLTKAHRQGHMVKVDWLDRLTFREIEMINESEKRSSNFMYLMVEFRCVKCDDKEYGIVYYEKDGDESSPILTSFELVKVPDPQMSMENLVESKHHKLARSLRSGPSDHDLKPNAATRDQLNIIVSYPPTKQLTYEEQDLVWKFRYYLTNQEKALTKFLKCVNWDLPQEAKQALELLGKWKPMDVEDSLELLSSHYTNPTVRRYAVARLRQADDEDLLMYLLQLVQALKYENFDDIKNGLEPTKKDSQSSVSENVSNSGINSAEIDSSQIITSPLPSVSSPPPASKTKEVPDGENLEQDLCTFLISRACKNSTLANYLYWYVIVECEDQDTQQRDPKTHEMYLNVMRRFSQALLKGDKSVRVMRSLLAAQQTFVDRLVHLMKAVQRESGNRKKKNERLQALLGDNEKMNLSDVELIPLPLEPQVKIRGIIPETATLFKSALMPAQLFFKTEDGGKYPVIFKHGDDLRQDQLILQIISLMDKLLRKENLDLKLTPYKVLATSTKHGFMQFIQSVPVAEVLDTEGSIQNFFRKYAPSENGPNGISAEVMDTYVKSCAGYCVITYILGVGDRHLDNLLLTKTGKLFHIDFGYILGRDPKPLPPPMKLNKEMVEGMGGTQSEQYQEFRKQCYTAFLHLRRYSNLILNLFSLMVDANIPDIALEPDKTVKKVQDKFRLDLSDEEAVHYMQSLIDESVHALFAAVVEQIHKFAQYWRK

IC50	Structure (SMILES)
< 10 nM	C[C@@H]1COCCN1c1nc2n(c(=O)c1F)CCC(C)(C)N2CC(=O)c1ccccn1 [Example 71, 3-Fluoro-8,8-dimethyl-2-((R)-3-methyl-morpholin-4-yl)-9-(2-oxo-2-pyridin-2-yl-ethyl)-6,7,8,9-tetrahydro-pyrimido[1,2-a]-pyrimidin-4-one]
< 10 nM	C[C@@H]1COC[C@@H](C)N1c1cc(=O)n2c(n1)N(Cc1ncco1)[C@H](C(F)(F)F)CC2 [Example 158, (S)-2-((3R,5R)-3,5-Dimethylmorpholin-4-yl)-9-oxazol-2-yl-methyl-8-trifluoromethyl-6,7,8,9-tetrahydro-pyrimido[1,2-a]-pyrimidin-4-one]
< 10 nM	Cc1nc(CN2c3nc(N4CCOC[C@H]4C)c(F)c(=O)n3CC[C@H]2C(F)(F)F)no1 [Example 15, (S)-3-Fluoro-2-((R)-3-methylmorpholin-4-yl)-9-(5-methyl-[1,2,4]oxadiazol-3-yl-methyl)-8-trifluoromethyl-6,7,8,9-tetrahydro-pyrimido[1,2-a]-pyrimidin-4-one]
< 10 nM	Cc1nnc(CN2c3nc(N4CCOC[C@H]4C)cc(=O)n3CC[C@H]2C(F)(F)F)o1 [Example 96, (S)-2-((R)-3-Methyl-morpholin-4-yl)-9-(5-methyl-[1,3,4]oxadiazol-2-yl-methyl)-8-trifluoromethyl-6,7,8,9-tetrahydro-pyrimido[1,2-a]-pyrimidin-4-one]
< 10 nM	CO[C@H](CN1c2nc(N3CCOC[C@H]3C)cc(=O)n2CC[C@H]1C(F)(F)F)c1ccccc1 [Example 100, (S)-9-((S)-2-Methoxy-2-phenylethyl)-2-((R)-3-methylmorpholin-4-yl)-8-trifluoromethyl-6,7,8,9-tetrahydro-pyrimido[1,2-a]-pyrimidin-4-one]
10 to 100 nM	O=C(CN1c2nc(N3CC4CCC(C3)O4)cc(=O)n2CC[C@H]1C(F)(F)F)c1cccnc1 [Example 170, (S)-2-(8-Oxa-3-aza-bicyclo[3.2.1]oct-3-yl)-9-(2-oxo-2-pyridin-3-ylethyl)-8-trifluoromethyl-6,7,8,9-tetrahydro-pyrimido[1,2-a]-pyrimidin-4-one]
< 10 nM	CCC(=O)CN1CC[C@H](C(F)(F)F)n2c1nc(N1CCOC[C@H]1C)cc2=O [Example 26, (R)-2-((R)-3-Methyl-morpholin-4-yl)-9-(2-oxobutyl)-6-trifluoromethyl-6,7,8,9-tetrahydro-pyrimido[1,2-a]-pyrimidin-4-one]
10 to 100 nM	CC(=O)CN1CC[C@H](C(F)(F)F)n2c1nc(N1CCOC[C@H]1C)c(F)c2=O [Example 148, (R)-3-Fluoro-2-((R)-3-methylmorpholin-4-yl)-9-(2-oxopropyl)-6-trifluoromethyl-6,7,8,9-tetrahydro-pyrimido[1,2-a]-pyrimidin-4-one]
10 to 100 nM	C[C@@H]1COCCN1c1cc(=O)n2c(n1)N(CC(=O)N(C)C)[C@H](C(F)(F)F)CC2 [Example 222, N,N-Dimethyl-2-[(S)-8-((R)-3-methyl-morpholin-4-yl)-6-oxo-2-trifluoromethyl-3,4-dihydro-2H,6H-pyrimido[1,2-a]-pyrimidin-1-yl]-acetamide]
< 10 nM	C[C@@H]1COCCN1c1cc(=O)n2c(n1)N(Cc1cc(Cl)ccn1)[C@H](C(F)(F)F)CC2 [Example 65, (S)-9-(4-Chloro-pyridin-2-ylmethyl)-2-((R)-3-methyl-mopholin-4-yl)-8-trifluoromethyl-6,7,8,9-tetrahydro-pyrimido[1,2-a]-pyrimidin-4-one]
< 10 nM	C[C@@H]1COCCN1c1cc(=O)n2c(n1)N(Cc1cccnc1F)[C@H](C(F)(F)F)CC2 [Example 221, (S)-9-(2-Fluoropyridin-3-ylmethyl)-2-((R)-3-methylmorpholin-4-yl)-8-trifluoromethyl-6,7,8,9-tetrahydro-pyrimido[1,2-a]-pyrimidin-4-one]
10 to 100 nM	Cc1noc(CN2c3nc(N4CCOC[C@H]4C)cc(=O)n3C[C@@]2(C)C(F)(F)F)n1 [Example 208, (S)-2-Methyl-7-((R)-3-methylmorpholin-4-yl)-1-(3-methyl-[1,2,4]oxadiazol-5-yl-methyl)-2-trifluoromethyl-2,3-dihydro-1H-imidazo[1,2-a]-pyrimidin-5-one]
< 10 nM	C[C@@H]1COCCN1c1nc2n(c(=O)c1F)CC[C@@H](C(F)(F)F)N2Cc1cccnc1F [Example 58, (S)-3-Fluoro-9-(2-fluoropyridin-3-yl-methyl)-2-((R)-3-methylmorpholin-4-yl)-8-trifluoromethyl-6,7,8,9-tetrahydro-pyrimido[1,2-a]-pyrimidin-4-one]
< 10 nM	C[C@@H]1COCCN1c1cc(=O)n2c(n1)N(CC(=O)c1cccnc1)CC[C@@H]2C(F)(F)F [Example 141, (R)-2-((R)-3-Methyl-morpholin-4-yl)-9-(2-oxo-2-pyridin-3-yl-ethyl)-6-trifluoromethyl-6,7,8,9-tetrahydro-pyrimido[1,2-a]-pyrimidin-4-one]
< 10 nM	CC(C)C(=O)CN1CC[C@H](C(F)(F)F)n2c1nc(N1CCOC[C@H]1C)cc2=O [Example 130, (R)-2-((R)-3-Methyl-morpholin-4-yl)-9-(3-methyl-2-oxobutyl)-6-trifluoromethyl-6,7,8,9-tetrahydro-pyrimido[1,2-a]-pyrimidin-4-one]
< 10 nM	C[C@@H]1COCCN1c1cc(=O)n2c(n1)N(Cc1cccnc1)[C@H](C(F)(F)F)CC2 [Example 217, (S)-2-((R)-3-Methyl-morpholin-4-yl)-9-pyridin-3-ylmethyl-8-trifluoromethyl-6,7,8,9-tetrahydro-pyrimido[1,2-a]-pyrimidin-4-one]
10 to 100 nM	O=c1cc(N2CCOCC2CO)nc2n1CC[C@@H](C(F)(F)F)N2Cc1ccc(Cl)s1 (single isomer, unassigned) [Example 177]
< 10 nM	C[C@@H]1COCCN1c1cc(=O)n2c(n1)N(c1ccncc1)[C@H](C(F)(F)F)CC2 [Example 198, (S)-2-((R)-3-Methyl-morpholin-4-yl)-9-pyridin-4-yl-8-trifluoromethyl-6,7,8,9-tetrahydro-pyrimido[1,2-a]-pyrimidin-4-one]
< 10 nM	C[C@@H]1COCCN1c1cc(=O)n2c(n1)N(CC(=O)c1ccc(F)cn1)[C@H](C(F)(F)F)CC2 [Example 70, (S)-9-[2-(5-Fluoro-pyridin-2-yl)-2-oxo-ethyl]-2-((R)-3-methyl-morpholin-4-yl)-8-trifluoromethyl-6,7,8,9-tetrahydro-pyrimido[1,2-a]-pyrimidin-4-one]
< 10 nM	C[C@@H]1COCCN1c1nc2n(c(=O)c1F)[C@@H](C(F)(F)F)CCN2Cc1nc(C(F)(F)F)no1 [Example 28, (R)-3-Fluoro-2-((R)-3-methylmorpholin-4-yl)-6-trifluoromethyl-9-(3-trifluoromethyl-[1,2,4]oxadiazol-5-yl-methyl)-6,7,8,9-tetrahydro-pyrimido[1,2-a]-pyrimidin-4-one]
< 10 nM	C[C@@H]1COCCN1c1nc2n(c(=O)c1F)C[C@@](C)(C(F)(F)F)N2CC(=O)c1cccnc1 [Example 189, (S)-6-Fluoro-2-methyl-7-((R)-3-methyl-morpholin-4-yl)-1-(2-oxo-2-pyridin-3-yl-ethyl)-2-trifluoromethyl-2,3-dihydro-1H-imidazo[1,2-a]-pyrimidin-5-one]
< 10 nM	C[C@@H]1COCCN1c1nc2n(c(=O)c1F)CC[C@@H](C(F)(F)F)N2CCOCC(F)(F)F [Example 48, (S)-3-Fluoro-2-((R)-3-methylmorpholin-4-yl)-9-[2-(2,2,2-trifluoro-ethoxy)ethyl]-8-trifluoromethyl-6,7,8,9-tetrahydro-pyrimido[1,2-a]-pyrimidin-4-one]
< 10 nM	Cc1nc(CN2c3nc(N4CCOC[C@H]4C)cc(=O)n3CC[C@H]2C(F)(F)F)no1 [Example 2, (S)-2-((R)-3-Methyl-morpholin-4-yl)-9-(5-methyl-[1,2,4]oxadiazol-3-yl-methyl)-8-trifluoromethyl-6,7,8,9-tetrahydro-pyrimido[1,2-a]-pyrimidin-4-one]
< 10 nM	C[C@@H]1COCCN1c1nc2n(c(=O)c1F)[C@@H](C(F)(F)F)CCN2Cc1nc(C2CC2)no1 [Example 147, (R)-9-(3-Cyclopropyl-[1,2,4]oxadiazol-5-yl-methyl)-3-fluoro-2-((R)-3-methyl-morpholin-4-yl)-6-trifluoromethyl-6,7,8,9-tetrahydro-pyrimido[1,2-a]-pyrimidin-4-one]
< 10 nM	C[C@@H]1COCCN1c1nc2n(c(=O)c1F)CC[C@@H](C(F)(F)F)N2Cc1ccnn1C(F)F [Example 297, (S)-9-(2-Difluoromethyl-2H-pyrazol-3-ylmethyl)-3-fluoro-2-((R)-3-methyl-morpholin-4-yl)-8-trifluoromethyl-6,7,8,9-tetrahydro-pyrimido[1,2-a]-pyrimidin-4-one]
< 10 nM	CO[C@H](CN1c2nc(N3C[C@H]4CC[C@@H](C3)O4)cc(=O)n2CC[C@H]1C(F)(F)F)c1ccccc1 [Example 206, (S)-9-((S)-2-Methoxy-2-phenylethyl)-2-(1R,5S)-8-oxa-3-aza-bicyclo[3.2.1]oct-3-yl-8-trifluoromethyl-6,7,8,9-tetrahydro-pyrimido[1,2-a]-pyrimidin-4-one]
< 10 nM	C[C@@H]1COCCN1c1nc2n(c(=O)c1F)CC[C@@H](C(F)(F)F)N2Cc1ccno1 [Example 46, (S)-3-Fluoro-9-isoxazol-5-ylmethyl-2-((R)-3-methyl-morpholin-4-yl)-8-trifluoromethyl-6,7,8,9-tetrahydro-pyrimido[1,2-a]-pyrimidin-4-one]
< 10 nM	CC(=O)CN1c2nc(N3CCOC[C@H]3C)c(F)c(=O)n2CC[C@H]1C(F)(F)F [Example 7, (S)-3-Fluoro-2-((R)-3-methylmorpholin-4-yl)-9-(2-oxopropyl)-8-trifluoromethyl-6,7,8,9-tetrahydro-pyrimido[1,2-a]-pyrimidin-4-one]
< 10 nM	Cc1cc(C(=O)CN2c3nc(N4CCOC[C@H]4C)cc(=O)n3CC[C@H]2C(F)(F)F)no1 [Example 311, (S)-9-[2-(5-Methyl-isoxazol-3-yl)-2-oxo-ethyl]-2-((R)-3-methyl-morpholin-4-yl)-8-trifluoromethyl-6,7,8,9-tetrahydro-pyrimido[1,2-a]-pyrimidin-4-one]
